Data on 26 compounds can be found in patent US20250263408A1 (Uniquest Pty Ltd, priority 2022, published 2025).

Assay [1] deals with Ba/F3-WT (wild type) cells. The assay is described as follows: Ba/F3 Proliferation Assay, Ba/F3-WT (wild type) cells with mIL-3 (Resazurin). Format: cell-based. As to conditions: Mus musculus, BaF3, 48 h, Ba/F3-WT cells +mIL-3, 48-hour incubation.
The target of assay [2] is T1, Syk (Homo sapiens, UniProt P43405).
T1 construct: purchased Promega
Briefly: Syk Biochemical Assay (ADP-Glo luminescence). As to conditions: ATP 40 μM final, 60 minutes, read-out: SYK Biochem IC50. The method, then: Compounds were serially diluted in 100% DMSO, prior to an intermediate dilution in water. In a low volume white 384-well Proxiplate (Perkin Elmer), 1 μL of compound (0.4% final DMSO) was added to 3 μL of 10 ng/well Syk (Promega) and 0.2 mg/mL Poly-E4Y1 substrate (Promega) in assay buffer (final 40 mM Tris-HCl pH 7.4, 20 mM MgCl2, 0.1 mg/mL BSA) for 5 minutes. The reaction was initiated by addition of 1 μL of ATP (40 μM final) and allowed to proceed for 60 minutes at room temperature. The reaction was terminated by addition of 5 μL of ADP-Glo Reagent Mix (Promega) containing 1 mM MgCl2 for 45 minutes at room temperature. 10 μL of Kinase Detection Reagent (Promega) was added and incubated for 10 minutes at room temperature, before luminescence was measured using an Ensight Multimode Plate Reader (Perkin Elmer).

Assay [3] has as its target T2, Ba/F3-Syk cells (Homo sapiens, UniProt P43405).
T2 construct: fused on or other part: Possible but unprinted fusion partner: TEL (ETV6), the usual partner for Ba/F3 lines transformed by Syk; Nothing on a partner is printed
The assay is described as follows: Ba/F3 Proliferation Assay, Ba/F3-Syk cells (Resazurin). Format: cell-based. As to conditions: 48-hour incubation.

Where only a bound is given, the exact number is not on record here.

`Cn1cc(-c2cc3ncccc3c(OCC3CNCC(C)(C)O3)n2)cn1` (stereo not drawn) [Compound 2.13, 5-[(6,6-dimethylmorpholin-yl)methoxy]-7-(1-methyl-1H-pyrazol-4-yl)-1,6-naphthyridine]: the EC50 in assay [1] amounted to 2400 nM; in assay [3] it was 79 nM. Also, the IC50 in assay [2] worked out at 51.6 nM.
With `FC(F)n1cc(-c2cc3ncccc3c(OC[C@@H]3CNCCO3)n2)cn1` [Compound 2.15, 7-[1-(difluoromethyl)-1H-pyrazol-4-yl]-5-{[(2S)-morpholin-2-yl]methoxy}-1,6-naphthyridine], the EC50 was determined as 2890 nM in assay [1] and 139 nM in assay [3]. The IC50 in assay [2] was determined as 74.8 nM.
Taken in the same sequence, the figures for `FC(F)(F)n1cc(-c2cc3ncccc3c(OC[C@@H]3CNCCO3)n2)cn1` [Compound 2.16, 5-{[(2S)-morpholin-2-yl]methoxy}-7-[1-(trifluoromethyl)-1H-pyrazol-4-yl]-1,6-naphthyridine] were above 10000 nM, 493 nM and 222 nM.
Taken in the same sequence, the figures for `FC(F)(F)c1[nH]ncc1-c1cc2ncccc2c(OC[C@@H]2CNCCO2)n1` [Compound 2.17, 5-{[(2S)-morpholin-2-yl]methoxy}-7-[5-(trifluoromethyl)-1H-pyrazol-4-yl]-1,6-naphthyridine] were above 10000 nM, 2460 nM and 789 nM.
Taken in the same sequence, the figures for `Cc1cc(-c2cc3ncccc3c(OC[C@@H]3CNCCO3)n2)cs1` [Compound 2.18, 7-(5-methylthiophen-3-yl)-5-{[(2S)-morpholin-2-yl]methoxy}-1,6-naphthyridine] were 1860 nM, 78.2 nM and 47.2 nM.
As to `Cc1ccc(-c2cc3ncccc3c(OC[C@@H]3CNCCO3)n2)s1` [Compound 2.19, 7-(5-methylthiophen-2-yl)-5-{[(2S)-morpholin-2-yl]methoxy}-1,6-naphthyridine], the EC50 in assay [1] is 2780 nM; in assay [3] it was 198 nM. In addition, the IC50 in assay [2] amounted to 68.5 nM.
Taken in the same sequence, the figures for `c1cnc2cc(-c3cnn(C4CC4)c3)nc(OC[C@@H]3CNCCO3)c2c1` [Compound 2.21, 7-(1-cyclopropyl-1H-pyrazol-4-yl)-5-{[(2S)-morpholin-2-yl]methoxy}-1,6-naphthyridine] were 2700 nM, 61 nM and 82.8 nM.
Taken in the same sequence, the figures for `c1cnc2cc(-c3cnn(C4CCC4)c3)nc(OC[C@@H]3CNCCO3)c2c1` [Compound 2.22, 7-(1-cyclobutyl-1H-pyrazol-4-yl)-5-{[(2S)-morpholin-2-yl]methoxy}-1,6-naphthyridine] were 694 nM, 30.6 nM and 28.1 nM.
Taken in the same sequence, the figures for `c1cnc2cc(-c3cn[nH]c3)nc(OC[C@@H]3CNCCO3)c2c1` [Compound 2.23, 5-{[(2S)-morpholin-2-yl]methoxy}-7-(1H-pyrazol-4-yl)-1,6-naphthyridine] were 5800 nM, 440 nM and 106 nM.
As to `Cn1cc(-c2cc3ncccc3c(OC[C@@H]3CNCC(C)(C)O3)n2)cn1` [Compound 2.32, 5-{[(2S)-6,6-dimethylmorpholin-2-yl]methoxy}-7-(1-methyl-1H-pyrazol-4-yl)-1,6-naphthyridine], the EC50 in assay [1] was 4760 nM; in assay [3], 48.4 nM. In assay [2], the half-inhibitory concentration (IC50) worked out at 23.5 nM.
For `Cn1cc(-c2cc3ncccc3c(OC[C@@H]3CNCC4(CC4)O3)n2)cn1` [Compound 2.43, 7-(1-methyl-1H-pyrazol-4-yl)-5-{[(5S)-4-oxa-7-azaspiro[2.5]octan-5-yl]methoxy}-1,6-naphthyridine], the results for the EC50 in assay [1] and in assay [3] were 2520 nM and 79.9 nM, respectively. Also, the IC50 in assay [2] was found to be 31.9 nM.
Taken in the same sequence, the figures for `CC(C)n1cc(-c2cc3ncccc3c(OC[C@@H]3CNCC(C)(C)O3)n2)cn1` [Compound 2.45, 5-{[(2S)-6,6-dimethylmorpholin-2-yl]methoxy}-7-[1-(propan-2-yl)-1H-pyrazol-4-yl]-1,6-naphthyridine] were 1480 nM, 17.8 nM and 9.2 nM.
With `CC1(C)CNC[C@@H](COc2nc(-c3cnn(C4CC4)c3)cc3ncccc23)O1` [Compound 2.46, 7-(1-cyclopropyl-1H-pyrazol-4-yl)-5-{[(2S)-6,6-dimethylmorpholin-2-yl]methoxy}-1,6-naphthyridine], the EC50 in assay [1] was determined as 3430 nM; in assay [3], 65 nM. Also, the IC50 in assay [2] came to 19 nM.
For `CC(C)(C)n1cc(-c2cc3ncccc3c(OC[C@@H]3CNCCCO3)n2)cn1` [Compound 2.49, 7-(1-tert-butyl-1H-pyrazol-4-yl)-5-{[(2S)-1,4-oxazepan-2-yl]methoxy}-1,6-naphthyridine], the EC50 in assay [1] stood at 3050 nM; in assay [3] it was 47.1 nM. Further, the IC50 in assay [2] stood at 71 nM.
Taken in the same sequence, the figures for `Cn1ccc(-c2cc3ncccc3c(OC[C@@H]3CNCCCO3)n2)c1` [Compound 2.52, 7-(1-methyl-1H-pyrrol-3-yl)-5-{[(2S)-1,4-oxazepan-2-yl]methoxy}-1,6-naphthyridine] were 9830 nM, 57.4 nM and 22.1 nM.
Taken in the same sequence, the figures for `CC1(C)CNC[C@@H](COc2nc(-c3ccn(C(C)(C)C)c3)cc3ncccc23)O1` [Compound 2.57, 7-(1-tert-butyl-1H-pyrrol-3-yl)-5-{[(2S)-6,6-dimethylmorpholin-2-yl]methoxy}-1,6-naphthyridine] were above 10000 nM, 21.6 nM and 10 nM.
Taken in the same sequence, the figures for `CC(C)(C)n1ccc(-c2cc3ncccc3c(OC[C@@H]3CNCCO3)n2)c1` [Compound 2.58, 7-(1-tert-butyl-1H-pyrrol-3-yl)-5-{[(2S)-morpholin-2-yl]methoxy}-1,6-naphthyridine] were 6710 nM, 25.4 nM and 9.6 nM.
As to `Cn1ccc(-c2cc3ncccc3c(OC[C@@H]3CNCC4(CC4)O3)n2)c1` [Compound 2.60, 7-(1-methyl-1H-pyrrol-3-yl)-5-{[(5S)-4-oxa-7-azaspiro[2.5]octan-5-yl]methoxy}-1,6-naphthyridine], the concentration for a half-maximal effect (EC50) in assay [1] stood at 4070 nM; in assay [3], 26.6 nM. Further, in assay [2], the IC50 was determined as 24.6 nM.
Taken in the same sequence, the figures for `CC(C)(C)n1cc(-c2cc3ncccc3c(OC[C@@H]3CNCC4(CC4)O3)n2)cn1` [Compound 2.63, 7-(1-tert-butyl-1H-pyrazol-4-yl)-5-{[(5S)-4-oxa-7-azaspiro[2.5]octan-5-yl]methoxy}-1,6-naphthyridine] were 2870 nM, 20.6 nM and 26.4 nM.
Taken in the same sequence, the figures for `CC(C)(C)n1ccc(-c2cc3ncccc3c(OC[C@@H]3CNCCCO3)n2)c1` [Compound 2.69, 7-(1-tert-butyl-1H-pyrrol-3-yl)-5-{[(2S)-1,4-oxazepan-2-yl]methoxy}-1,6-naphthyridine] were above 10000 nM, 13.5 nM and 30.1 nM.
Taken in the same sequence, the figures for `C[C@@H]1CNC[C@@H](COc2nc(-c3cnn(C)c3)cc3ncccc23)O1` [Compound 2.76, 7-(1-methyl-1H-pyrazol-4-yl)-5-{[(2S,6R)-6-methylmorpholin-2-yl]methoxy}-1,6-naphthyridine] were 2760 nM, 44.8 nM and 17.6 nM.
`CC(C)[C@@H]1CNC[C@@H](COc2nc(-c3cnn(C(C)(C)C)c3)cc3ncccc23)O1` [Compound 2.98, 7-(1-tert-butyl-1H-pyrazol-4-yl)-5-{[(2S,6R)-6-(propan-2-yl)morpholin-2-yl]methoxy}-1,6-naphthyridine]: the values for the EC50 in assay [1] and in assay [3] were 846 nM and 18.6 nM, respectively. For the same compound, in assay [2], the half-maximal inhibitory concentration (IC50) came to 28.3 nM.
Taken in the same sequence, the figures for `CC(C)(C)n1cc(-c2cc3ncccc3c(OC[C@@H]3CNC[C@@H](C(F)F)O3)n2)cn1` [Compound 2.99, 7-(1-tert-butyl-1-pyrazol-4-yl)-5-{[(2S,6S)-6-(difluoromethyl)morpholin-2-yl]methoxy}-1,6-naphthyridine] were 1010 nM, 17.8 nM and 21.4 nM.
`CC(C)(C)[C@H]1CNC[C@@H](COc2nc(-c3cnn(C(C)(C)C)c3)cc3ncccc23)O1` [Compound 2.100, 7-(1-tert-butyl-1H-pyrazol-4-yl)-5-{[(2S,6S)-6-tert-butylmorpholin-2-yl]methoxy}-1,6-naphthyridine]: the values for the EC50 in assay [1] and in assay [3] were 3010 nM and 362 nM, respectively. In addition, the IC50 in assay [2] stood at 278 nM.
Taken in the same sequence, the figures for `CC(C)(C)[C@@H]1CNC[C@@H](COc2nc(-c3cnn(C(C)(C)C)c3)cc3ncccc23)O1` [Compound 2.101, 7-(1-tert-butyl-1H-pyrazol-4-yl)-5-{[(2S,6R)-6-tert-butylmorpholin-2-yl]methoxy}-1,6-naphthyridine] were 628 nM, 25.4 nM and 40 nM.
Taken in the same sequence, the figures for `CC(C)(C)n1cc(-c2cc3ncccc3c(OC[C@@H]3CNC[C@H](C4CC4)O3)n2)cn1` [Compound 2.102, 7-(1-tert-butyl-1H-pyrazol-4-yl)-5-{[(2S,6S)-6-cyclopropylmorpholin-2-yl]methoxy}-1,6-naphthyridine] were 1070 nM, 11.7 nM and 12.9 nM.
